Experiments:
Assay type in all cases: cell-based
TNF-α = assay: TNF-alpha in LPS-induced PBMCs / CD14+ monocytes, Meso Scale assay
Experimental: (§1) FIG. 4 represents the activity against TNF-alpha in CD14, monocytes, plated in 96 well plates and pretreated with Compounds 1, 2, or 3, or pomalidomide, for 1 h and then induced with 100 ng/mL LPS for 18-24 h. Cytokines were measured according to MesoScale protocol. The negative control wells were treated with DMSO. Cells were treated with compound (at the indicated concentrations) or 10 μM pomalidomide. Compound activity was measured as a percentage of LPS-induced activity.
(§2) Either frozen primary blood mononuclear cells (PBMCs) or frozen CD14+ mobilized peripheral blood monocytes were purchased from AllCells (PB003F, Normal Peripheral Blood MNC (Alameda, Calif.)). Cells were quick thawed, washed 1-time with RPMI-1640 (10% FBS/1% Pen-Strep) and plated in 96 well plates at 200,000 cells per well. Cells were pretreated with DMSO only, pomalidomide or the indicated compounds for 1 h and then induced with 100 ng/mL lipopolysaccharide (LPS) for 18-24 h. The supernatant was analyzed for IL-1 beta, IL-6, and TNF-alpha, using Meso Scale assay according to manufacturer's protocol. The negative control wells were treated with DMSO.
(§3) Compound activity is measured as fold difference from the DMSO control. Compounds 1, 2, and 3 each reduced expression of IL-1-b in LPS-stimulated PBMCs by over 80% at 1 uM, relative to a just under 80% reduction with pomalidomide at 10 μM (FIG. 2).

IL-1β = assay: IL-1 beta in LPS-induced PBMCs / CD14+ monocytes, Meso Scale assay
Experimental: FIG. 2 represents the activity against IL-1-beta in CD14 monocytes, plated in 96 well plates and pretreated with Compounds 1, 2, or 3, or pomalidomide, for 1 h and then induced with 100 ng/mL LPS for 18-24 h. Cytokines were measured according to MesoScale protocol. Negative control wells were treated with DMSO. Compound activity was measured as a percentage of LPS-induced activity.
as §2, §3

Molm-13 cells = assay: Cell viability assay (CellTiter-Glo), Molm-13 cells; settings: Homo sapiens, 72 h, 3 days; for viability at 10 µM: MOLM-13, 10 μM; for viability at 0.5 µM: MOLM-13, 0.5 μM
Experimental: FIG. 5 represents antiproliferative activity in Molm-13 cells. The cells were incubated with Compound 1, 2, or 3 (at the indicated concentration), DMSO, or pomalidomide. Compound activity was measured based on the signal from remaining viable cells.
(§4) Molm-13 cells were cultivated in RPMI-1640 (10% FBS/1% pen-strep) and were plated in white walled 96-well plates at 20,000 cells/well. H1048 cells were cultured in DMEM:F12 media supplemented with 5% fetal bovine serum, insulin, transferrin, sodium selenite, hydrocortisone, estradiol, penicillin and streptomycin, and were plated in white walled 96-well plates at 20,000 cells/well.
(§5) Cells were treated with compound at the indicated concentration or DMSO (control) and the cultures were incubated for 3 days at 37° C. and 5% CO2. Following the incubation period, 100 μL of CellTiterGlow (CTG) reagent (CellTiter-Glo® Luminescent Cell Viability Assay, Promega (Madison, Wis.)) was added to each well. Following a 10 min incubation with shaking, luminescence was measured using a Victor Wallac Luminometer.

IL-6 = IL-6 in LPS-induced PBMCs / CD14+ monocytes, Meso Scale assay
Experimental: as §1, with “FIG. 3” for “FIG. 4”, “against IL-6” for “against TNF-alpha”, “protocol. Negative” for “protocol. The negative”
as §2, §3

IL-2 = IL-2 in PBMCs on anti-human CD3 (OKT3) coated plates, Mesoscale analysis; settings: PBMC, 24 h, relative to DMSO control, read-out: Fold Change IL-2
Experimental: For the IL-2 analysis, 96 well plates were precoated with 1 μg/mL anti-human CD3 antibody (OKT3, eBioscience Inc., San Diego, Calif.). After washing with PBS, compounds were added (50 μL/well) followed by PBMCs diluted at 3-4 million cells/mL (150 μL/well). Plates were incubated for 24 h and the supernatants collected for Mesoscale IL-2 analysis.
as §3

H1048 cells = assay: Cell viability assay (CellTiter-Glo), H1048 cells; settings: Homo sapiens, NCI-H1048, 72 h, 3 days; for viability at 1 µM: H1048, 1 μM; for viability at 10 µM: H1048, 10 μM
Experimental: as §4, §5

GSPT1 = biological target: T1, GSPT1 (Homo sapiens, UniProt P15170); assay: Western blot analysis of GSPT1 protein levels in Jurkat cells; settings: DMSO = 100.00; for GSPT1 protein level (% of DMSO control) at 0.1 µM: 100 nM compound; for GSPT1 protein level (% of DMSO control) at 1 µM: 1 uM compound
T1 construct: Whole cell extract was prepared with RIPA buffer according to manufacturer's protocol; endogenous in cells; host or cells: Jurkat cells
T1 sequence (P15170 whole entry): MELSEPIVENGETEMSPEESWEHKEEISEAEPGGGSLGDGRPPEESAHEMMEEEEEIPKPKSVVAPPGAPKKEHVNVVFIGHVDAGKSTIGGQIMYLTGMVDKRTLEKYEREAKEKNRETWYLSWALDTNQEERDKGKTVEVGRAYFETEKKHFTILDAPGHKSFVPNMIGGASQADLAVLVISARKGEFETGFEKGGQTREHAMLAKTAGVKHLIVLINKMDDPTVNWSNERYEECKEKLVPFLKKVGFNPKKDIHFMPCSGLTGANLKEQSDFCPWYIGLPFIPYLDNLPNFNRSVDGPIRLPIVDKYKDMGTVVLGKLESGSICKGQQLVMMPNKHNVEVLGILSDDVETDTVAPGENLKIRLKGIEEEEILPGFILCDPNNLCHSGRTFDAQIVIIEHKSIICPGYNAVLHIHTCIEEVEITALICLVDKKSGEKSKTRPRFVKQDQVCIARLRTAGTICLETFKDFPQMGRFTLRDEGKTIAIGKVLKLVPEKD
Experimental: FIG. 1 represents the activity against CK1α, ikaros, and GPST1 in Jurkat cells, plated in 96 well plates. Cells were pretreated with compounds for 4 h and then lysed and protein levels measure via Western blots. The negative control wells were treated with DMSO. Cells were treated with the indicated compound at the indicated concentration. Compound activity is measured as a decrease in GSPT1 protein levels.
Western Blot Protocol: Cell lines were grown in RPMI 1640 supplemented with streptomycin, penicillin and 10% fetal bovine serum.
Jurkat cells were cultured at approximately 10^6 cells per mL, DMSO or the indicated compound was added to the cells and allowed to incubate for 6-8 h. Whole cell extract was prepared with RIPA buffer according to manufacturer's protocol (Pierce (Dallas, Tex.)). Briefly, ˜2×10^6 cells were washed once in PBS, the cell pellet was resuspended in RIPA buffer and allowed to incubate for 15 min on ice. Cell debris was removed by centrifugation and the cleared whole cell lysate was transferred to a new tube for further analysis.
For western blot analysis, whole cell extracts were separated on 4-12% SDS-polyacrylamide gels, transferred to nitrocellulose and probed with the indicated primary antibodies. Membranes were subsequently washed and probed with the appropriate horseradish peroxidase (HRP)-conjugated secondary antibody. Membranes were subsequently washed and probed with the appropriate IRDye secondary antibodies (LI-COR). The signal was detected using the Odyssey Imaging System (LI-COR).

Compound | GSPT1 protein level (% of DMSO control) at 0.1 µM (GSPT1) | GSPT1 protein level (% of DMSO control) at 1 µM (GSPT1) | inhibition at 1 µM (TNF-α) | inhibition at 1 µM (IL-1β) | viability at 10 µM (Molm-13 cells) | inhibition at 1 µM (IL-6) | fold induction at 1 µM (IL-2) | viability at 1 µM (H1048 cells) | viability at 10 µM (H1048 cells) | inhibition at 0.1 µM (TNF-α) | inhibition at 0.1 µM (IL-1β) | inhibition at 0.1 µM (IL-6) | fold induction at 0.1 µM (IL-2) | viability at 0.5 µM (Molm-13 cells) | viability at 1 µM (Molm-13 cells; MOLM-13, 1 μM)
O=C(Cc1ccc(C(F)(F)F)c(Cl)c1)NCc1ccc2c(c1)CN([C@H]1CCCC(=O)NC1=O)C2=O [Compound 10, (S)-2-(3-chloro-4-(trifluoromethyl)phenyl)-N-((2-(2,7-dioxoazepan-3-yl)-1-oxoisoindolin-5-yl)methyl)acetamide] | 83.3% | 49.3% | 67% | 68% | 96% | 67% | 1.5 | 82.1% | 21.5% |  |  |  |  |  | 
Cc1ccc(CC(=O)NCc2ccc3c(c2)CN([C@H]2CCCC(=O)NC2=O)C3=O)cc1CN1CCOCC1 [Compound 11, (S)—N-((2-(2,7-dioxoazepan-3-yl)-1-oxoisoindolin-5-yl)methyl)-2-(4-methyl-3-(morpholinomethyl)phenyl)acetamide] | 137% | 56% | 12% | 0% | 99% | 5% | 0.6 | 70.8% | 11.6% |  |  |  |  |  | 
COc1ccc(CC(=O)NCc2ccc3c(c2)CN([C@H]2CCCC(=O)NC2=O)C3=O)cc1Cl [Compound 13, (S)-2-(3-chloro-4-methoxyphenyl)-N-((2-(2,7-dioxoazepan-3-yl)-1-oxoisoindolin-5-yl)methyl)acetamide] | 95.9% | 46.2% | 53% | 77% | 84% | 85% | 2.6 | 97.8% | 44.2% |  |  |  |  |  | 
O=C(Cc1cccc(CN2CCOCC2)c1)NCc1ccc2c(c1)CN([C@H]1CCCC(=O)NC1=O)C2=O [Compound 14, (S)—N-((2-(2,7-dioxoazepan-3-yl)-1-oxoisoindolin-5-yl)methyl)-2-(3-(morpholinomethyl)phenyl)acetamide] | 145% | 82.8% |  |  | 28% |  |  | 101% | 56.2% | 0% | 0% | 0% | 0.9 |  | 
O=C(Cc1ccc(Cl)c(CN2CCOCC2)c1)NCc1ccc2c(c1)CN([C@H]1CCCC(=O)NC1=O)C2=O [Compound 15, (S)-2-(4-chloro-3-(morpholinomethyl)phenyl)-N-((2-(2,7-dioxoazepan-3-yl)-1-oxoisoindolin-5-yl)methyl)acetamide] | 167% | 111% |  |  | 84% |  |  | 93.3% | 35% | 0% | 0% | 0% | 1 |  | 

Further lines, with some results ahead:

GSPT1 protein level (% of DMSO control) at 0.1 µM (GSPT1) | GSPT1 protein level (% of DMSO control) at 1 µM (GSPT1) | Compound | inhibition at 1 µM (TNF-α) | inhibition at 1 µM (IL-1β) | viability at 10 µM (Molm-13 cells) | inhibition at 1 µM (IL-6) | fold induction at 1 µM (IL-2) | viability at 1 µM (H1048 cells) | viability at 10 µM (H1048 cells) | inhibition at 0.1 µM (TNF-α) | inhibition at 0.1 µM (IL-1β) | inhibition at 0.1 µM (IL-6) | fold induction at 0.1 µM (IL-2) | viability at 0.5 µM (Molm-13 cells) | viability at 1 µM (Molm-13 cells; MOLM-13, 1 μM)
59.4% | 39.3% | Cc1ccc(NC(=O)NCc2ccc3c(c2C)CN([C@H]2CCCC(=O)NC2=O)C3=O)cc1Cl [Compound 16, (S)-1-(3-chloro-4-methylphenyl)-3-((2-(2,7-dioxoazepan-3-yl)-4-methyl-1-oxoisoindolin-5-yl)methyl)urea] |  |  |  |  |  | 7.66% | 3.93% | 78% | 72% | 72% | 1.7 | 70% | 
131% | 80.5% | Cc1ccc(NC(=O)NCc2cccc3c2CN([C@H]2CCCC(=O)NC2=O)C3=O)cc1Cl [Compound 17, (S)-1-(3-chloro-4-methylphenyl)-3-((2-(2,7-dioxoazepan-3-yl)-1-oxoisoindolin-4-yl)methyl)urea] |  |  | 91% |  |  | 95.5% | 34.9% | 18% | 19% | 0% | 1.3 |  | 
69.7% | 20.2% | Cc1ccc(CNC(=O)NCc2ccc3c(c2)CN([C@H]2CCCC(=O)NC2=O)C3=O)cc1Cl [Compound 18, (S)-1-(3-chloro-4-methylbenzyl)-3-((2-(2,7-dioxoazepan-3-yl)-1-oxoisoindolin-5-yl)methyl)urea] |  |  |  |  |  | 14.2% | 4.28% | 48% | 53% | 41% | 1.5 | 68% | 
 | 26.8% | Cc1ccc(CCNC(=O)NCc2ccc3c(c2)CN([C@H]2CCCC(=O)NC2=O)C3=O)cc1Cl [Compound 19, (S)-1-(3-chloro-4-methylphenethyl)-3-((2-(2,7-dioxoazepan-3-v)-1-oxoisoindolin-5-yl)methyl)urea] |  |  |  |  |  | 8.26% | 3.09% | 33% | 37% | 17% | 1.2 |  | 79%
126% | 160% | Cc1ccc(CNC(=O)NCc2cccc3c2CN([C@H]2CCCC(=O)NC2=O)C3=O)cc1Cl [Compound 20, (S)-1-(3-chloro-4-methylbenzyl)-3-((2-(2,7-dioxoazepan-3-yl)-1-oxoisoindolin-4-yl)methyl)urea] |  |  | 23% |  |  | 98.5% | 96.2% | 11% | 12% | 7% | 1.1 |  | 
